Earlier results as cited in EP3850074B1, “BENEFIT AGENT DELIVERY PARTICLES” (Unilever Global IP Ltd, priority 2018, dated 2020).

Details: at 25°C and at atmospheric pressure

Structure (SMILES): Nc1nc(N)nc(N)n1 [melamine, 2,4,6-triamino-1,3,5-triazine]
- solubility in distilled water: about 0.3 g/L
